{"source": "patent US20110059956A1", "about": "“THERAPEUTIC AGENT FOR PAIN” (ZERIA PHARMACEUTICAL CO., LTD., priority 2008, published 2011)", "key": {"[1]": {"system": "nociceptive pain triggered by formalin", "conditions": "cited from earlier work; for analgesic effect, sole use: Non-Patent Document 11"}, "[2]": {"system": "nociceptive pain caused by thermal stimulation", "conditions": "cited from earlier work; for generation of morphine resistance: mouse, thermal stimulation, Non-Patent Documents 5 and 6"}, "[3]": {"system": "nociceptive pain caused by thermal stimulation", "conditions": "Non-Patent Document 7, cited from earlier work"}, "neuropathic pain": {"system": "neuropathic pain", "conditions": "cited from earlier work"}, "[4]": {"system": "allodynia in B16-BL6 melanoma cancer pain model", "assay": "cancer pain model (B16-BL6 melanoma), von Frey pain threshold, repeated administration", "format": "in vivo, mouse", "conditions": "100 mg/kg orally once a day for eight days from day 7 after cancer transplantation; FIG. 2", "procedure": "From day 7 after cancer transplantation, compound (A1) or L-365,260 (CCK2 receptor antagonist) (100 mg/kg) was orally administered once a day for eight days repeatedly, and the change in pain threshold was monitored. […] On day 7 after cancer transplantation, allodynia occurred, and a considerable drop in pain threshold occurred on day 14 after cancer transplantation."}, "[5]": {"system": "allodynia in B16-BL6 melanoma cancer pain model", "assay": "cancer pain model (B16-BL6 melanoma transplanted into paw), von Frey pain threshold, single administration", "format": "in vivo, mouse", "conditions": "peroral single administration 100 mg/kg on day 14 after cancer transplantation; FIG. 1", "text": "Then, the change in pain threshold was monitored. Compound (A1) was suspended in 0.5% CMC-Na solution before administration."}, "thermal hyperalgesia": {"system": "thermal hyperalgesia", "conditions": "Non-Patent Document 12; cited from earlier work"}, "pancreatic cancer": {"system": "pancreatic cancer", "conditions": "Non-Patent Document 15, cited from earlier work"}, "cancer pain": {"system": "cancer pain", "conditions": "clinical, combination with morphine; Non-Patent Document 10; cited from earlier work"}}, "note": "Structures can show the parent of a compound that is named as a salt. Where two headings read alike, the source gives them in different places."}
{"smiles": "C[C@](Cc1c[nH]c2ccccc12)(NC(=O)OC1[C@H]2C[C@@H]3C[C@@H](C[C@H]1C3)C2)C(=O)NC[C@H](NC(=O)CCC(=O)O)c1ccccc1", "note": "(stereo partly drawn) [CI-988]", "values": [{"measurement": "analgesic effect of morphine on nociceptive pain", "setting": "[1]; combination with morphine, Non-Patent Document 8", "result": "potentiates the analgesic effect of morphine"}, {"measurement": "generation of morphine resistance", "setting": "[2]", "result": "suppress generation of morphine resistance"}]}
{"smiles": "Cc1cccc(NC(=O)N[C@@H]2N=C(c3ccccc3)c3ccccc3N(C)C2=O)c1", "note": "[L-365,260]", "values": [{"measurement": "analgesic effect, sole use", "setting": "[1]", "result": "exhibits the analgesic effect"}, {"measurement": "generation of morphine resistance", "setting": "[2]", "result": "suppress generation of morphine resistance"}, {"measurement": "analgesic effect, single use", "setting": "[2]; single use, Non-Patent Document 13", "result": "exhibits no analgesic effect"}, {"measurement": "analgesic effect of morphine on nociceptive pain", "setting": "[3]; combination with morphine", "result": "potentiates the analgesic effect of morphine"}, {"measurement": "analgesic effect, single use", "setting": "[3]; single use", "result": "exhibits no analgesic effect"}, {"measurement": "analgesic effect of morphine on allodynia", "setting": "neuropathic pain; combination with morphine, Non-Patent Document 9", "result": "potentiates the analgesic effect of morphine"}, {"measurement": "generation of morphine resistance", "setting": "neuropathic pain; rat neuropathic pain model, Non-Patent Document 4", "result": "suppress generation of morphine resistance"}, {"measurement": "analgesic effect, single use", "setting": "neuropathic pain; single use, Non-Patent Document 9", "result": "exhibits no analgesic effect"}, {"measurement": "change in pain threshold / improvement of allodynia", "setting": "[4]", "result": "no effect on improvement of allodynia was observed"}, {"measurement": "change in pain threshold / improvement of allodynia", "setting": "[5]", "result": "no effect on improvement of allodynia"}]}
{"smiles": "Cc1cccc(NC(=O)N[C@@H]2N=C(c3ccccc3)c3ccccc3N(CC(=O)c3ccccc3C)C2=O)c1", "note": "[YM022]", "values": [{"measurement": "analgesic effect, sole use, on thermal hyperalgesia", "setting": "thermal hyperalgesia", "result": "an analgesic effect"}]}
{"smiles": "Nc1ccn([C@@H]2O[C@H](CO)[C@@H](O)C2(F)F)c(=O)n1", "note": "[gemcitabine hydrochloride]", "values": [{"measurement": "pain relief effect", "setting": "pancreatic cancer; pancreatic cancer patients", "result": "excellent pain relief effect"}, {"measurement": "tumor regression effect", "setting": "pancreatic cancer; pancreatic cancer", "result": "comparatively weak tumor regression effect"}]}
{"smiles": "CCCN(CCC)C(=O)C(CCC(=O)O)NC(=O)c1ccccc1", "note": "(stereo not drawn) [proglumide]", "values": [{"measurement": "analgesic effect, sole use", "setting": "[1]", "result": "exhibits the analgesic effect"}, {"measurement": "analgesic effect of morphine on cancer pain", "setting": "cancer pain", "result": "potentiates the analgesic effect of morphine"}, {"measurement": "change in pain threshold / improvement of allodynia", "setting": "[5]", "result": "no effect on improvement of allodynia"}]}
